Source: EP1619195A2, “Compounds isolated from gamboge resin having activity in inhibiting the growth of tumor/cancer cells and pharmaceutical compositions comprising the same” (priority 2004, dated 2006)
Converted amounts (≈) assume the structure as drawn. “And” between values parts separate entries of the source, which are not always exact repeats. Equal values may be shown once. Marks after values point to notes of the source that are not given here.

Tests used:
[1] = test system: HL-60 (leukemia); assay: cells; conditions: for LC50: 50% cell destroying lethal concentration
From the text: (§1) The cancer cell growth inhibition test was primarily used to detect the effect of a candidate drug on cancer cell proliferation. The working principle involved therein is the abilityof viable cells to shift alamarBlue (Biosource, USA) from its originally non-fluorescent oxidized state to a reduced form (fluorescent, red) having fluorescence via metabolic reaction. According to the fluorescent data result generated by the alamarBlue reagent thus obtained, the proliferation of the viable cells and cell activity can be quantified for detection.
(§2) In this experiment, the assay concentrations of the candidate drug were set to be 0.01, 0.1, 1, 10, and 100 µg/ml, and the following cell lines were used: 6 human cancer cells MCF-7 (breast cancer), HT-29 (colon cancer), HL-60 (leukemia), HepG2 (liver cancer), A549 (lung cancer), and U937 (lymphoma cancer), and a normal human umbilicalvenalepithelialcell (HUVEC).

[2] = test system: U937 (lymphoma cancer); assay: cells; conditions: for LC50: 50% cell destroying lethal concentration
From the text: as §1, §2

[3] = test system: HepG2 (liver cancer); assay: cells; conditions: for LC50: 50% cell destroying lethal concentration
From the text: as §1, §2

[4] = test system: MCF-7 (breast cancer); assay: cells; conditions: for LC50: 50% cell destroying lethal concentration
From the text: as §1, §2

[5] = test system: A549 (lung cancer); assay: cells; conditions: for LC50: 50% cell destroying lethal concentration
From the text: as §1, §2

[6] = test system: HT-29 (colon cancer); assay: cells; conditions: for LC50: 50% cell destroying lethal concentration
From the text: as §1, §2

[7] = test system: HUVEC; assay: in vitro; conditions: for LC50: 50% cell destroying lethal concentration
From the text: as §1, §2

[8] = in vitro; conditions: human
From the text: as §1, §2

[9] = test system: Human breast cancer cells MCF-7 (ATCC HTB-22); assay: In vivo tumor growth inhibition, MCF-7 xenograft in SCID mice; conditions: 2 mg/kg x 5, intraperitoneal, 4-day interval
Method: Mixture formulation TSB-9 was further subjected to an animal test, in which female mice (6-8 weeks old, weighing 20-22 grams) originally from C.B-17/Icr background and having Severe Combined Immune Deficiency (SCID) were used.
Human breast cancer cells MCF-7 (ATCC HTB-22) (1x10^7 cells/0.2 ml) were implanted subcutaneously into the dorsal side of the mice, and 50 µg/mouse of estradiol benzoate (Sigma, USA) was injected subcutaneously into the mice weekly as supplement for a total of 4 weeks. When the tumor growth reached ≥5 mm in diameter (that very day was denoted as day 1), tumor-bearing […] mice were randomly divided into 4 groups (6 mice in each group).
Mixture formulation TSB-9 was dissolved in 10%DMSO, and was administered orally to the mice every day at two dosages 40 mg/kg and 80 mg/kg, respectively, for a total of 21 consecutive days. […] This treatment group served as a positive control.
Measurements were taken once every 4 days during the experiment periods, and were recorded.

[10] = HepG2, 50% cell growth inhibition concentration
[11] = MCF-7, 50% cell growth inhibition concentration
[12] = HT-29, 50% cell growth inhibition concentration
[13] = Homo sapiens, HL-60, HL-60, 50% cell growth inhibition concentration
[14] = Homo sapiens, U-937, U937, 50% cell growth inhibition concentration
[15] = Homo sapiens, HepG2, HepG2, 50% cell growth inhibition concentration
[16] = Homo sapiens, MCF7, MCF-7, 50% cell growth inhibition concentration
[17] = Homo sapiens, A549, A549, 50% cell growth inhibition concentration
[18] = Homo sapiens, HT-29, HT-29, 50% cell growth inhibition concentration
[19] = Homo sapiens, HUVEC, HUVEC (normal human cell), 50% cell growth inhibition concentration

Structure (SMILES): CC(C)=CCc1c2c(c(O)c3c1OC14C(=CC5CC1C(C)(C)OC4(CC=C(C)C(=O)O)C5=O)C3=O)C=CC(C)(C)O2 (centres unmarked) [TSB-7, morellic acid]
- LC50 ([1]; HL-60): 5.6 µg/mL (≈ 9.99 µM)
- IC50 ([1]; HL-60, 50% cell growth inhibition concentration): 1.2 µg/mL
- LC50 ([2]; U937): 4.8 µg/mL (≈ 8.56 µM)
- IC50 ([2]; U937, 50% cell growth inhibition concentration): 1.6 µg/mL
- LC50 ([3]; HepG2): 3.9 µg/mL (≈ 6.96 µM)
- IC50 [3, 10]: 1.7 µg/mL
- LC50 ([4]; MCF-7): 6.2 µg/mL (≈ 11.1 µM)
- IC50 [4, 11]: 0.98 µg/mL
- LC50 ([5]; A549): 3.4 µg/mL (≈ 6.06 µM)
- IC50 ([5]; A549, 50% cell growth inhibition concentration): 0.76 µg/mL
- LC50 ([6]; HT-29): 7.2 µg/mL (≈ 12.8 µM)
- IC50 [6, 12]: 2.8 µg/mL
- LC50 ([7]; HUVEC (normal human cell)): 4.8 µg/mL (≈ 8.56 µM)
- IC50 ([7]; HUVEC (normal human cell), 50% cell growth inhibition concentration): 0.88 µg/mL

Structure (SMILES): CC(C)=CCC[C@]1(C)C=Cc2c(O)c3c(c(CC=C(C)C)c2O1)O[C@]12C(=C[C@@H]4C[C@H]1C(C)(C)O[C@@]2(C/C=C(/C)C(=O)O)C4=O)C3=O [TSB-5, gambogic acid]
- IC50 [1, 13]: 0.5 µg/mL
- CC50 ([1]; Homo sapiens, HL-60, read-out: LC50): 5.2 µg/mL (≈ 8.27 µM)
- IC50 [2, 14]: 0.65 µg/mL
- CC50 ([2]; Homo sapiens, U-937, read-out: LC50): 3.1 µg/mL (≈ 4.93 µM)
- IC50 [3, 15]: 0.83 µg/mL
- CC50 ([3]; Homo sapiens, HepG2, read-out: LC50): 2.7 µg/mL (≈ 4.29 µM)
- IC50 [4, 16]: 0.83 µg/mL
- CC50 ([4]; Homo sapiens, MCF7, read-out: LC50): 2.7 µg/mL (≈ 4.29 µM)
- IC50 [5, 17]: 0.8 µg/mL
- CC50 ([5]; Homo sapiens, A549, read-out: LC50): 2.9 µg/mL (≈ 4.61 µM)
- IC50 [6, 18]: 4.5 µg/mL
- CC50 ([6]; Homo sapiens, HT-29, read-out: LC50): 7.1 µg/mL (≈ 11.3 µM)
- CC50 [8]: 3.6 µg/mL (≈ 5.73 µM)
- IC50 [7, 19]: 0.87 µg/mL

Structure (SMILES): CC(C)=CCc1c(O)cc(O)c2c(=O)c3cc4c(c(O)c3oc12)OC(C)(C)C=C4 [TSB-4, 7,9,12-trihydroxy-2,2-dimethyl-10-(3-methyl-but-2-enyl)-2H-pyrano[3,2-b]xanthen-6-one]
- IC50 [1, 13]: 7.7 µg/mL
- IC50 [2, 14]: 6.9 µg/mL
- IC50 [3, 15]: 8.9 µg/mL
- IC50 [4, 16]: 10 µg/mL
- IC50 [5, 17]: 1.8 µg/mL
- IC50 [6, 18]: 8.4 µg/mL
- CC50 [8]: 21 µg/mL (≈ 53.2 µM)
- IC50 [7, 19]: 11 µg/mL

Structure (SMILES): CO[C@@]12[C@H](COC(N)=O)C3=C(C(=O)C(C)=C(N)C3=O)N1C[C@@H]1N[C@@H]12 [mitomycin, reference compound]
- Tumor growth (%T/C) ([9]; Day 1): 98%
- Tumor growth (%T/C) ([9]; Day 5): 31* %
- Tumor growth (%T/C) ([9]; Day 9): 1* %
- Tumor growth (%T/C) ([9]; Day 13): -6* %
- Tumor growth (%T/C) ([9]; Day 17): -23* %
- Tumor growth (%T/C) ([9]; Day 21): -36* %
- Tumor growth (%T/C) ([9]; Day 25): -56* %
- Tumor growth (%T/C) ([9]; Day 29): -70* %
- IC50 ([1]; HL-60, positive control): 47 nM and 27 nM
- IC50 ([1]; Homo sapiens, HL-60, HL-60, positive control): 39 nM
- IC50 ([2]; Homo sapiens, U-937, U937, positive control): 69 nM
- IC50 ([2]; U937, positive control): 35 nM and 56 nM
- IC50 ([3]; HepG2, positive control): 26 nM
- IC50 ([3]; HepG2, positive control, listed as Mitomycin): 62 nM and 36 nM
- IC50 ([4]; MCF-7, positive control): 69 nM and 34 nM
- IC50 ([5]; A549, positive control): 62 nM and 61 nM
- IC50 ([5]; Homo sapiens, A549, A549, positive control): 68 nM
- IC50 ([6]; HT-29, positive control): 120 nM and 89 nM
- IC50 ([6]; Homo sapiens, HT-29, HT-29, positive control): 90 nM
- IC50 ([7]; HUVEC (normal human cell), positive control): 240 nM
- IC50 ([7]; HUVEC (normal human cell), positive control, listed as Mitomycin): 170 nM

Structure (SMILES): CC(C)=CCCC1(C)C=Cc2c(O)c3c(c(CC=C(C)C)c2O1)OC12C(=CC4CC1C(C)(C)OC2(CC=C(C)C(=O)O)C4=O)C3=O (centres unmarked) [TSB-3, isogambogic acid]
- LC50 ([1]; HL-60): 4.6 µg/mL (≈ 7.32 µM)
- IC50 [1, 13]: 0.97 µg/mL
- IC50 ([2]; Homo sapiens, U-937): 0.82 µg/mL
- LC50 ([2]; U937): 3.1 µg/mL (≈ 4.93 µM)
- LC50 ([3]; HepG2): 1.9 µg/mL (≈ 3.02 µM)
- IC50 [3, 15]: 1.2 µg/mL
- IC50 [4, 16]: 1.6 µg/mL
- LC50 ([4]; MCF-7): 4.3 µg/mL (≈ 6.84 µM)
- LC50 ([5]; A549): 4.8 µg/mL (≈ 7.63 µM)
- IC50 [5, 17]: 0.88 µg/mL
- LC50 ([6]; HT-29): 8.8 µg/mL (≈ 14 µM)
- IC50 [6, 18]: 6.4 µg/mL
- LC50 ([7]; HUVEC (normal human cell)): 5.2 µg/mL (≈ 8.27 µM)
- IC50 [7, 19]: 1.1 µg/mL

Structure (SMILES): CC(C)=CCc1c2c(c(O)c3c1OC14C(=CC5CC1C(C)(C)OC4(CC=C(C)C)C5=O)C3=O)C=CC(C)(C)O2 (centres unmarked) [TSB-8, desoxymorellin]
- LC50 ([1]; HL-60): > 100 µg/mL
- IC50 [1, 13]: 6.5 µg/mL
- IC50 ([2]; Homo sapiens, U-937): 6.2 µg/mL
- LC50 ([2]; U937): > 100 µg/mL
- LC50 ([3]; HepG2): 31 µg/mL (≈ 58.4 µM)
- IC50 [3, 15]: 3.9 µg/mL
- IC50 [4, 16]: 5.3 µg/mL
- LC50 ([4]; MCF-7): 83 µg/mL (≈ 156 µM)
- LC50 ([5]; A549): 56 µg/mL (≈ 106 µM)
- IC50 [5, 17]: 4.8 µg/mL
- LC50 ([6]; HT-29): 69 µg/mL (≈ 130 µM)
- IC50 [6, 18]: 6.7 µg/mL
- LC50 ([7]; HUVEC (normal human cell)): 40 µg/mL (≈ 75.4 µM)
- IC50 [7, 19]: 2.8 µg/mL

Structure (SMILES): CC(C)=CCc1c2c(c(O)c3c1OC14C(=CC5CC1C(C)(C)OC4(CC=C(C)C(=O)O)C5=O)C3=O)C=CC(C)(C)O2 (centres unmarked) [TSB-2, isomorellic acid]
- LC50 ([1]; HL-60): 43 µg/mL (≈ 76.7 µM)
- IC50 [1, 13]: 2.3 µg/mL
- IC50 ([2]; Homo sapiens, U-937): 1.6 µg/mL
- LC50 ([2]; U937): 6.1 µg/mL (≈ 10.9 µM)
- LC50 ([3]; HepG2): 33 µg/mL (≈ 58.9 µM)
- IC50 [3, 10]: 6.4 µg/mL
- LC50 ([4]; MCF-7): 24 µg/mL (≈ 42.8 µM)
- IC50 [4, 11]: 9.0 µg/mL
- LC50 ([5]; A549): 4.6 µg/mL (≈ 8.2 µM)
- IC50 [5, 17]: 1.3 µg/mL
- LC50 ([6]; HT-29): 12 µg/mL (≈ 21.4 µM)
- IC50 [6, 12]: 6.9 µg/mL
- LC50 ([7]; HUVEC (normal human cell)): 22 µg/mL (≈ 39.2 µM)
- IC50 [7, 19]: 1.7 µg/mL

Structure (SMILES): CC(C)=CCc1c2c(c(O)c3c1OC14C(=CC5CC1C(C)(C)OC4(CC=C(C)CO)C5=O)C3=O)C=CC(C)(C)O2 (centres unmarked) [TSB-6, isomorellinol]
- LC50 ([1]; HL-60): 6.2 µg/mL (≈ 11.3 µM)
- IC50 ([1]; Homo sapiens, HL-60): 1.4 µg/mL
- IC50 ([2]; Homo sapiens, U-937): 1.3 µg/mL
- LC50 ([2]; U937): 3.8 µg/mL (≈ 6.95 µM)
- LC50 ([3]; HepG2): 3.0 µg/mL (≈ 5.49 µM)
- IC50 ([3]; Homo sapiens, HepG2): 1.2 µg/mL
- IC50 ([4]; Homo sapiens, MCF7): 0.9 µg/mL
- LC50 ([4]; MCF-7): 5.8 µg/mL (≈ 10.6 µM)
- LC50 ([5]; A549): 9.6 µg/mL (≈ 17.6 µM)
- IC50 ([5]; Homo sapiens, A549): 2 µg/mL
- LC50 ([6]; HT-29): 8.5 µg/mL (≈ 15.5 µM)
- IC50 ([6]; Homo sapiens, HT-29): 5.2 µg/mL
- LC50 ([7]; HUVEC (normal human cell)): 9.3 µg/mL (≈ 17 µM)
- IC50 ([7]; Homo sapiens, HUVEC): 1.5 µg/mL
